Experimental data from patent US20210255193A1, “LYSINE REACTIVE PROBES AND USES THEREOF” (The Scripps Research Institute, priority 2017, published 2021).

Tests used:
Assay in all cases: competitive isoTOP-ABPP
Type in all cases: binding
ADK Adenosine kinase = molecular target: T1, ADK Adenosine kinase (Homo sapiens, UniProt P55263); parameters: key to isoTOP-ABPP reactivity ratio at lysine P55263_K88: R = MS1 peak area ratio, DMSO (heavy) / compound-treated (light); conditions: for isoTOP-ABPP reactivity ratio at lysine P55263_K88: 231 sol; for isoTOP-ABPP ratio, lysine P55263_K88: 50 uM_231_sol_in vitro
T1 construct: isoTOP-ABPP experiments performed in cell lysates (in vitro); endogenous in cells; host or cells: soluble proteome of human cancer cell lines (MDA-MB-231, Ramos, Jurkat)
T1 sequence (P55263 whole entry): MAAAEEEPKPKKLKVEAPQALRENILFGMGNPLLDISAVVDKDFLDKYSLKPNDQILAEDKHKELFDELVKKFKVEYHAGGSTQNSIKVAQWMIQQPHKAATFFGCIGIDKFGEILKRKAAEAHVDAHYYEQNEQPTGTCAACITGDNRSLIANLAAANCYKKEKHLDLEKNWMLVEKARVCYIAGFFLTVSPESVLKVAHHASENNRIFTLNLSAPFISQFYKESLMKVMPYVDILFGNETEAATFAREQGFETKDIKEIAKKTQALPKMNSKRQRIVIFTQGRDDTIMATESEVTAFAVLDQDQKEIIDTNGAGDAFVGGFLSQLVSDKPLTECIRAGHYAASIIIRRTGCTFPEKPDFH
Protocol: (§1) In vitro covalent fragment treatment for isoTOP-ABPP. All compounds were made up as solutions in DMSO (100×) and were used at a final concentration of 50 μM for activated esters and 100 μM for guanidinylating agents. For each profiling sample, 0.5 ml of lysate was treated with 5 μl of the 100× compound stock solution or 5 μl of DMSO. Samples were treated with activated esters for
(§2) STP-alkyne labeling and click chemistry. For concentration-dependent reactivity measurements by isoTOP-ABPP, 0.5 ml proteome aliquots were treated at ambient temperature with 1 mM STP-alkyne 1 (5 μl of 100 mM stock in DMSO) and 0.1 mM STP alkyne 1 (5 μl of 10 mM stock in DMSO), respectively. For competitive isoTOP-ABPP, after in vitro fragment treatment (detailed above), the samples were labeled for 1 h at ambient temperature with 0.1 mM STP-alkyne 1 (5 μl of 10 mM stock in DMSO). Samples were conjugated by copper-mediated azide-alkyne cycloaddition (CuAAC) to either the light (1 mM STP-alkyne or fragment treated) or heavy (0.1 mM STP-alkyne or DMSO treated) TEV tags (10 μl of 5 mM stocks in DMSO, final concentration=100 μM) using tris(2-carboxyethyl)phosphine hydrochloride
(§3) R value calculation and processing. The ratios of light and heavy MS1 peaks for each unique peptide were quantified with a CIMAGE software using default parameters (3 MS1 acquisitions per peak and signal to noise threshold set to 2.5). For reactivity measurements by isoTOP-ABPP, the R value was calculated from the ratio of MS1 peak areas, comparing the 1 mM STP alkyne sample (light TEV tag) with the 0.1 mM STP alkyne sample (heavy TEV tag). For competitive isoTOP-ABPP, the R value was calculated from the ratio of MS1 peak areas, comparing the DMSO treated sample (heavy TEV tag) with the compound treated sample (light TEV tag). […] Ratios for unique peptide entries are calculated for each experiment; overlapping peptides with the same modified lysine (for example, different charge states, MudPIT chromatographic steps or tryptic termini) are grouped together and the median ratio is reported as the final ratio (R). The peptide ratios reported by CIMAGE were further filtered to ensure the removal or correction of low-quality ratios in each individual data set. The quality filters applied were the following: removal of half tryptic peptides; for ratios with high standard deviations from the median (90% of the median or above) the lowest ratio was taken instead of the median; removal of peptides with R=20 and only a single MS2 event triggered during the elution of the parent ion; manual annotation of all the peptides with ratios of 20, removing any peptides with low quality elution profiles that remained after the previous curation steps (only done for competitive isoTOP-ABPP).
(§4) Cross-data processing for fragment screening. For compound treated samples, biological replicates of the same condition were averaged, if the standard deviation was below 60% of the mean; otherwise, for lysines with at least one R value <4 for a particular compound, the lowest value of the ratio set was taken. For lysines, where all R values for a particular compound were ≥4, the average was reported. For peptides containing several possible modified lysines, the lysine with the highest number of quantification events was used for analysis and the remaining, redundant peptides were reported as alternative modification sites. Peptides included in the aggregate dataset (those used for further bioinformatics and statistical analyses) were required to have been quantified in 2 experiments for competitive isoTOP-ABPP. Lysines were categorized as liganded, if they had at least one ratio R≥4 (hit fragments). For liganded lysines with R=20 for all liganding events, lysines were required to have been quantified with R=20 in two separate experiments and were further required to have been quantified with R<20 in one additional experiment.

[1] = molecular target: T2, PSME3 Proteasome activator complex subunit 3 (Homo sapiens, UniProt P61289); parameters: key to isoTOP-ABPP reactivity ratio at lysine P61289_K237: R = MS1 peak area ratio, DMSO (heavy) / compound-treated (light); key to isoTOP-ABPP reactivity ratio at lysine P61289_K12: R = MS1 peak area ratio, DMSO (heavy) / compound-treated (light); capped at 20; conditions: for isoTOP-ABPP reactivity ratio at lysine P61289_K12 / isoTOP-ABPP reactivity ratio at lysine P61289_K237: 50 uM, 231 sol, in vitro
T2 construct: isoTOP-ABPP experiments performed in cell lysates (in vitro); endogenous in cells; host or cells: soluble proteome of human cancer cell lines (MDA-MB-231, Ramos, Jurkat)
T2 sequence (P61289 whole entry, one chain of several): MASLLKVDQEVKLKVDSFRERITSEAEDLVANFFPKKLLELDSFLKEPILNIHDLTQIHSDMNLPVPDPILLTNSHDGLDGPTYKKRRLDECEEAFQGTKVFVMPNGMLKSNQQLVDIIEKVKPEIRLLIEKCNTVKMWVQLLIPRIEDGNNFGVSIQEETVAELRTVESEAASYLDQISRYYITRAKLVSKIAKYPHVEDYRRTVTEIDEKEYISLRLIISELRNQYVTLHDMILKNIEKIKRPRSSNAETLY
Protocol: as §1, §2, §3, §4

[2] = molecular target: T3, ACBD3 Golgi resident protein GCP60 (Homo sapiens, UniProt Q9H3P7); parameters: key to isoTOP-ABPP reactivity ratio at lysine Q9H3P7_K117: R = MS1 peak area ratio, DMSO (heavy) / compound-treated (light); conditions: for isoTOP-ABPP reactivity ratio at lysine Q9H3P7_K117: 231 sol; for isoTOP-ABPP ratio, lysine Q9H3P7_K117: 50 uM_231_sol_in vitro
T3 construct: isoTOP-ABPP experiments performed in cell lysates (in vitro); endogenous in cells; host or cells: soluble proteome of human cancer cell lines (MDA-MB-231; Ramos and Jurkat also prepared)
T3 sequence (Q9H3P7 1-528): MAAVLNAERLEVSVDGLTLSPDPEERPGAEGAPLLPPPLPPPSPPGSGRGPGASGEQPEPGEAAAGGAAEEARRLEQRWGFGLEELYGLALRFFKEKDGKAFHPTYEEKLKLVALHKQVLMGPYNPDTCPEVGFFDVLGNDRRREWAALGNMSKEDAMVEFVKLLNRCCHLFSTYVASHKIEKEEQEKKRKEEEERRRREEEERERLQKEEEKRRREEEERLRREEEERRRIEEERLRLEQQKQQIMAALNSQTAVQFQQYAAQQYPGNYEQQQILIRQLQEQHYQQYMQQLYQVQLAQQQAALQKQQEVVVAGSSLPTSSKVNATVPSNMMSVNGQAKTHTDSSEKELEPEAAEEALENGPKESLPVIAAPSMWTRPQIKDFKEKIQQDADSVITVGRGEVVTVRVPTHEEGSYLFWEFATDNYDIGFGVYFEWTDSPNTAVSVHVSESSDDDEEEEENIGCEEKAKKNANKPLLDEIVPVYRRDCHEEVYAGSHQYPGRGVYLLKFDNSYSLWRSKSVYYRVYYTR
Protocol: as §1, §2, §3, §4

[3] = molecular target: T4, ABHD10 Abhydrolase domain-containing protein 10, mitochondrial (Homo sapiens, UniProt Q9NUJ1); parameters: key to isoTOP-ABPP reactivity ratio at lysine Q9NUJ1_K185: R = MS1 peak area ratio, DMSO (heavy) / compound-treated (light); capped at 20; conditions: for isoTOP-ABPP reactivity ratio at lysine Q9NUJ1_K185: 231 sol; for isoTOP-ABPP ratio, lysine Q9NUJ1_K185: 50 uM_231_sol_in vitro
T4 construct: endogenous in cells; host or cells: MDA-MB-231 lysate
T4 sequence (Q9NUJ1 53-306): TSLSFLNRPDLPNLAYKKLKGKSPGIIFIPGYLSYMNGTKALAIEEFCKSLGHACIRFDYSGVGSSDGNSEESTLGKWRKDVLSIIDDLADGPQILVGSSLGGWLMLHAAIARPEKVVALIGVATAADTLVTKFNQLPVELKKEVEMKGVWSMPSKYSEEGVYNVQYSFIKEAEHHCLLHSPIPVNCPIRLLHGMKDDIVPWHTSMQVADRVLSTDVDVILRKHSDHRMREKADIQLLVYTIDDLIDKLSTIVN
Protocol: as §1, §2, §3, §4

SMILES | isoTOP-ABPP reactivity ratio at lysine P55263_K88 (ADK Adenosine kinase; 50 uM, in vitro) | isoTOP-ABPP reactivity ratio at lysine P61289_K237 [1] | isoTOP-ABPP reactivity ratio at lysine Q9H3P7_K117 ([2]; 50 uM, in vitro) | isoTOP-ABPP reactivity ratio at lysine Q9NUJ1_K185 ([3]; 50 uM, in vitro) | other results
O=C(CCc1cn(-c2ccccc2)nc1-c1ccccc1)Oc1ccc([N+](=O)[O-])cc1[N+](=O)[O-] [fragment 29, 2,4-Dinitrophenyl 3-(1,3-diphenyl-1H-pyrazol-4-yl)propanoate] | 1.0 | 0.4 | 1.0 | 1.3 | isoTOP-ABPP reactivity ratio at lysine P61289_K12 [1]: 1.1
NC(=O)c1cc(C(F)(F)F)cc(C(F)(F)F)c1 [fragment 51, reference compound] |  |  |  |  | isoTOP-ABPP ratio, lysine P55263_K88 (ADK Adenosine kinase): 0.8; isoTOP-ABPP ratio, lysine P61289_K237 ([1]; 50 uM_231_sol_in vitro): 0.7; isoTOP-ABPP ratio, lysine Q9H3P7_K117 [2]: 0.9; isoTOP-ABPP ratio, lysine Q9NUJ1_K185 [3]: 1.0
N#Cc1ccc(C(=O)Oc2ccc([N+](=O)[O-])cc2[N+](=O)[O-])cc1 [fragment 44, 2,4-Dinitrophenyl 4-cyanobenzoate] |  |  |  |  | isoTOP-ABPP ratio, lysine P55263_K88 (ADK Adenosine kinase): 0.5; isoTOP-ABPP ratio, lysine Q9H3P7_K117 [2]: 0.8; isoTOP-ABPP ratio, lysine Q9NUJ1_K185 [3]: 1.2
CC(=O)Oc1ccc([N+](=O)[O-])cc1[N+](=O)[O-] [fragment 43, 2,4-Dinitrophenyl acetate] |  |  |  |  | isoTOP-ABPP ratio (R) at liganded lysine P55263_K88 (ADK Adenosine kinase; 50 uM, in vitro, sol, 231): 0.9; isoTOP-ABPP ratio (R) at liganded lysine Q9H3P7_K117 ([2]; 50 uM, in vitro, sol, 231): 1.2; isoTOP-ABPP ratio (R) at liganded lysine Q9NUJ1_K185 ([3]; 50 uM, in vitro, sol, 231): 1.3

Now from value to compound, other results behind:

isoTOP-ABPP reactivity ratio at lysine P55263_K88 (ADK Adenosine kinase; 50 uM, in vitro) | isoTOP-ABPP reactivity ratio at lysine P61289_K237 [1] | isoTOP-ABPP reactivity ratio at lysine Q9H3P7_K117 ([2]; 50 uM, in vitro) | isoTOP-ABPP reactivity ratio at lysine Q9NUJ1_K185 ([3]; 50 uM, in vitro) | SMILES | other results
0.9 | 1.1 | 1.8 | 1.5 | O=C(CCc1coc2cc(F)ccc2c1=O)Oc1c(F)c(F)c(F)c(F)c1F [fragment 26, Pentafluorophenyl 3-(7-fluoro-4-oxo-4H-chromen-3-yl)propanoate] | isoTOP-ABPP reactivity ratio at lysine P61289_K12 [1]: 0.9
0.8 | 0.8 | 1.9 | 1.9 | O=C(CN1C(=O)c2ccccc2C1=O)Oc1c(F)c(F)c(F)c(F)c1F [fragment 27, Pentafluorophenyl 2-(1,3-dioxoisoindolin-2-yl)acetate] | 
1.0 | 0.2 | 1.0 |  | O=C(Oc1c(F)c(F)c(F)c(F)c1F)C1CCN(C(=O)OCc2ccccc2)CC1 [fragment 24, 1-Benzyl 4-(pentafluorophenyl) piperidine-1,4-dicarboxylate] | 
